# Measured values taken from patent EP3494999A1, “PSMA LIGANDS FOR IMAGING AND ENDORADIOTHERAPY” (Technische Universität München, priority 2017, dated 2019).
# How the values were obtained:
# human serum albumin [1] = target: T1, human serum albumin (Homo sapiens, UniProt P02768); assay: Literature HSA binding of the reference substances used to calibrate the HSA column; settings: logarithmic K of human serum albumin binding, from the literature HSA%
# Method: The mobile phase was freshly prepared for each experiment and only used for one day. The column was kept at room temperature and each run was stopped after detection of the signal to reduce the acquisition time. All substances were dissolved in a 0.5mg/ml concentration in 50% 2-Propanol and 50% 50mM pH 6.9 ammonium acetate buffer. […] All nine reference substances were injected consecutively to establish a non-linear regression with OriginPro 2016G. […] Table 1: Reference substances used for the calibration of the HSA-column.
# human serum albumin [2] = target: T1, human serum albumin; settings: literature value of human serum albumin binding (Valko et al. or Yamazaki et al.); cited from earlier work
# T1 sequence (P02768 25-609): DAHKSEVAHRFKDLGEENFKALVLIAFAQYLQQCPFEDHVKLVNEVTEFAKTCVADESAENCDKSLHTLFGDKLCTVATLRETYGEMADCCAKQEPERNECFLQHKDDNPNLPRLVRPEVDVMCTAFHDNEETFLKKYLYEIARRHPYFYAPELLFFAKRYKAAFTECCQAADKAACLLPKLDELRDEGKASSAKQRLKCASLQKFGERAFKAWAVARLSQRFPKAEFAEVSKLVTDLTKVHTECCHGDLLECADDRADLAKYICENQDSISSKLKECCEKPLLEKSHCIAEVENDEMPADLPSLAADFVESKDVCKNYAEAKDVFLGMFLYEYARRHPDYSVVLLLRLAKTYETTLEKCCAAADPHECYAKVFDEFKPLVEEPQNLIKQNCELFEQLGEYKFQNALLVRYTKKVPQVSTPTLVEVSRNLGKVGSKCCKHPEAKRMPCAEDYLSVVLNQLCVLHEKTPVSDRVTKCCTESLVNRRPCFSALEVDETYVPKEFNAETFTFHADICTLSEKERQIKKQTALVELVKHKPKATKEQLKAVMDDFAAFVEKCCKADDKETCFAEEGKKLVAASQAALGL
compound,measurement,setting,value
COc1ccc(Cl)cc1C(=O)NCCc1ccc(S(=O)(=O)NC(=O)NC2CCCCC2)cc1 [Glibenclamide],Log K HSA,human serum albumin [1],1.69
same,Lit. HSA%,human serum albumin [2],99.00%
